Patent publication US6579519B2, “Sustained release and long residing ophthalmic formulation and the process of preparing the same” (Registrar, University of Delhi, priority 2000, dated 2003)

Assay: Maximum drug dissolved in polymeric micelles
Type: physicochemical
Conditions: room temperature
Protocol: In 100 mg of the lyophilized powder of the polymeric micelles nanoparticles, an alcoholic solution of indomethacin ([Indomethacin]=33 mg/ml) was added with constant stirring to get clear solution of polymeric micelles containing the drug of desired concentration dispersed in aqueous buffer. […] The drug loaded polymeric micelles was then lyophilized to get dry powder for subsequent use.
In 100 mg of dry powder of polymeric micelles, an alcoholic solution of nimesulide ([nimesulide]=10 mg/ml) was added with constant stirring to get clear solution. […] The drug loaded micelles was then lyophilized to get dry powder for subsequent use.

Maximum of the drug dissolved in polymeric micelles | Compound
10 % w/w | COc1ccc2c(c1)c(CC(=O)O)c(C)n2C(=O)c1ccc(Cl)cc1 [indomethacin, 1-(4 chlorobenzoyl)-5 methoxy-2-methyl-1H-indole-3acetic acid]
8 % w/w | CS(=O)(=O)Nc1ccc([N+](=O)[O-])cc1Oc1ccccc1 [nimesulide, N-(4-nitro-2 phenoxyphenyl) methanesulphonamide]
